Where a name gives a salt, the structure may show the parent alone.
What was measured:
[1] = system: tumor necrosis factor (α); assay: Cytokine Induction in Human Cells: tumor necrosis factor (α) by ELISA; assay type: cell-based; details: PBMC; human PBMCs, incubated 18 to 24 hours, lowest concentration found to induce tumor necrosis factor
Text: (§1) An in vitro human blood cell system was used to assess cytokine induction by compounds of the invention. Activity is based on the measurement of interferon and tumor necrosis factor (α) (IFN and TNF, respectively) secreted into culture media as described by Testerman et. al. In “Cytokine Induction by the Immunomodulators Imiquimod and S-27609”, Journal of Leukocyte Biology, 58, 365–372 (September, 1995).
(§2) Whole blood is collected by venipuncture into EDTA vacutainer tubes from healthy human donors. Peripheral blood mononuclear cells (PBMCs) are separated from whole blood by density gradient centrifugation using Histopaque®-1077 (Sigma Chemicals, St. Louis, Mo.). The PBMCs are suspended at 3–4×10^6 cells/mL in RPMI 1640 medium containing 10% fetal bovine serum, 2 mM L-glutamine and 1% penicillin/streptomycin solution (RPMI complete). The PBMC suspension is added to 48 well flat bottom sterile tissue culture plates (Costar, Cambridge, Mass. or Becton Dickinson Labware, Lincoln Park, N.J.) containing an equal volume of RPMI complete media containing test compound.
(§3) The compounds are solubilized in dimethyl sulfoxide (DMSO). The DMSO concentration should not exceed a final concentration of 1% for addition to the culture wells.
(§4) The solution of test compound is added at 60 μM to the first well containing RPMI complete and serial (three fold or ten fold) dilutions are made. The PBMC suspension is then added to the wells in an equal volume, bringing the test compound concentrations to the desired range. The final concentration of PBMC suspension is 1.5–2×10^6 cells/mL. The plates are covered with sterile plastic lids, mixed gently and then incubated for 18 to 24 hours at 37° C. in a 5% carbon dioxide atmosphere.
(§5) Following incubation the plates are centrifuged for 5–10 minutes at 1000 rpm (˜200×g) at 4° C. The cell culture supernatant is removed with a sterile polypropylene pipet and transferred to sterile polypropylene tubes. Samples are maintained at −30 to −70° C. until analysis. The samples are analyzed for interferon (α) and tumor necrosis factor (α) by ELISA
Tumor necrosis factor (α) (TNF) concentration is determined using ELISA kits available from Genzyme, Cambridge, Mass.; R&D Systems, Minneapolis, Minn.; or Pharmingen, San Diego, Calif.
(§6) The table below lists the lowest concentration found to induce interferon and the lowest concentration found to induce tumor necrosis factor for each compound.

[2] = system: interferon (α); assay: Cytokine Induction in Human Cells: interferon (α) by ELISA; assay type: cell-based; details: PBMC; human PBMCs, incubated 18 to 24 hours, lowest concentration found to induce interferon
Text: as §1, §2, §3, §4, §5
Interferon (α) concentration is determined by ELISA using a Human Multi-Species kit from PBL Biomedical Laboratories, New Brunswick, N.J.
as §6

COCCc1nc2c(N)nc3ccccc3c2n1CCCCNC(=O)Nc1ccc(C#N)cc1 [Example 109]
minimal effective concentration [1]: 0.1 µM
minimal effective concentration [2]: 0.0001 µM

CCCCNC(=O)NCCCCn1cnc2c(N)nc3ccccc3c21 [Example 52]
minimal effective concentration [1]: 10 µM
minimal effective concentration [2]: 1.11 µM

CCCNC(=O)NCCCCn1c(CCOC)nc2c(N)nc3ccccc3c21 [Example 102]
minimal effective concentration [1]: 1 µM
minimal effective concentration [2]: 0.001 µM

Nc1nc2ccccc2c2c1ncn2CCCCNC(=O)Nc1ccc(Oc2ccccc2)cc1 [Example 33]
minimal effective concentration [1]: > 30 µM
minimal effective concentration [2]: > 30 µM

CCCCCCCNC(=O)NCCCCn1cnc2c(N)nc3ccccc3c21 [Example 22]
minimal effective concentration [1]: 10 µM
minimal effective concentration [2]: > 30 µM

Nc1nc2ccccc2c2c1ncn2CCCCNC(=O)Nc1ccc(Br)cc1 [Example 42]
minimal effective concentration [1]: > 30 µM
minimal effective concentration [2]: > 30 µM

COC(=O)c1ccccc1NC(=O)NCCCCn1cnc2c(N)nc3ccccc3c21 [Example 43]
minimal effective concentration [1]: > 30 µM
minimal effective concentration [2]: > 30 µM

CCCCc1nc2c(N)nc3ccccc3c2n1CCNC(=O)NS(=O)(=O)c1ccc(F)cc1 [Example 139]
minimal effective concentration [1]: > 10 µM
minimal effective concentration [2]: > 10 µM

CCCCCCCCNC(=O)NCCCCn1c(CCCC)nc2c(N)nc3ccccc3c21 [Example 87]
minimal effective concentration [1]: > 10 µM
minimal effective concentration [2]: 1 µM

COCCc1nc2c(N)nc3ccccc3c2n1CCCCNC(=O)N1CCOCC1 [Example 121]
minimal effective concentration [1]: 10 µM
minimal effective concentration [2]: 0.01 µM

COCCc1nc2c(N)nc3ccccc3c2n1CCCCNC(=O)Nc1ccc(Cl)cc1 [Example 113]
minimal effective concentration [1]: 1 µM
minimal effective concentration [2]: 0.0001 µM

CCCCc1nc2c(N)nc3ccccc3c2n1CCCCNC(=O)N[C@H](C)c1ccccc1 [Example 81]
minimal effective concentration [1]: 1 µM
minimal effective concentration [2]: 0.01 µM

COCCc1nc2c(N)nc3c(c2n1CCCCNC(=O)N(C)C)CCCC3 [Example 134]
minimal effective concentration [1]: 1 µM
minimal effective concentration [2]: 0.001 µM

CCCNC(=O)NCCn1c(COCC)nc2c(N)nc3ccccc3c21 [Example 67]
minimal effective concentration [1]: 10 µM
minimal effective concentration [2]: 1 µM

COCCc1nc2c(N)nc3ccccc3c2n1CCCCNC(=O)N1CCCC1 [Example 122]
minimal effective concentration [1]: 1 µM
minimal effective concentration [2]: 0.001 µM

CCc1ccccc1NC(=O)NCCCCn1cnc2c(N)nc3ccccc3c21 [Example 40]
minimal effective concentration [1]: 3.33 µM
minimal effective concentration [2]: 0.37 µM

COCCc1nc2c(N)nc3ccccc3c2n1CCCCCCCCNC(=O)Nc1ccccc1 [Example 145, N-{8-[4-amino-2-(2-methoxyethyl)-1H-imidazo[4,5-c]quinolin-1-yl]octyl}-N′-phenylurea]
minimal effective concentration [1]: 0.04 µM
minimal effective concentration [2]: 0.01 µM

Nc1nc2ccccc2c2c1ncn2CCCCNC(=O)Nc1cc(C(F)(F)F)ccc1Cl [Example 31]
minimal effective concentration [1]: 10 µM
minimal effective concentration [2]: > 30 µM

CCOc1ccccc1NC(=O)NCCCCn1cnc2c(N)nc3ccccc3c21 [Example 44]
minimal effective concentration [1]: 10 µM
minimal effective concentration [2]: 1.11 µM

CCCCc1nc2c(N)nc3ccccc3c2n1CCCCNC(=O)N[C@@H]1C[C@H]1c1ccccc1 [Example 88]
minimal effective concentration [1]: 1 µM
minimal effective concentration [2]: 0.1 µM

CC(C)c1cccc(C(C)C)c1NC(=O)NCCCCn1cnc2c(N)nc3ccccc3c21 [Example 24]
minimal effective concentration [1]: > 30 µM
minimal effective concentration [2]: > 30 µM

CCCCNC(=O)NCCCCn1c(CCOC)nc2c(N)nc3ccccc3c21 [Example 103]
minimal effective concentration [1]: 0.1 µM
minimal effective concentration [2]: 0.0001 µM

COCCc1nc2c(N)nc3ccccc3c2n1CCCCNC(=S)Nc1ccc(N(C)C)c2ccccc12 [Example 126]
minimal effective concentration [1]: 1 µM
minimal effective concentration [2]: 0.0001 µM

CCCCc1nc2c(N)nc3ccccc3c2n1CCNC(=O)NC12CC3CC(CC(C3)C1)C2 [Example 53]
minimal effective concentration [1]: 10 µM
minimal effective concentration [2]: > 10 µM

COCCc1nc2c(N)nc3ccccc3c2n1CCCCNC(=O)N[C@@H](C)c1ccccc1 [Example 111]
minimal effective concentration [1]: 1 µM
minimal effective concentration [2]: 0.001 µM

CC(C)NC(=O)NCCCCn1cnc2c(N)nc3ccccc3c21 [Example 19]
minimal effective concentration [1]: 30 µM
minimal effective concentration [2]: 1.11 µM

CCCCc1nc2c(N)nc3ccccc3c2n1CCCCNC(=O)NCCC [Example 71]
minimal effective concentration [1]: 1 µM
minimal effective concentration [2]: 0.001 µM

CCCCc1nc2c(N)nc3c(c2n1CCCCNC(=O)NCc1ccccc1)CCCC3 [Example 133]
minimal effective concentration [1]: 10 µM
minimal effective concentration [2]: 0.1 µM

CCNC(=O)NCCCCn1c(CCOC)nc2c(N)nc3ccccc3c21 [Example 101]
minimal effective concentration [1]: 1 µM
minimal effective concentration [2]: 0.01 µM

Cc1cc(C)c(NC(=O)NCCCCn2cnc3c(N)nc4ccccc4c32)cc1C [Example 38]
minimal effective concentration [1]: > 30 µM
minimal effective concentration [2]: > 30 µM

COc1ccc(NC(=O)NCCCCn2cnc3c(N)nc4ccccc4c32)cc1 [Example 37]
minimal effective concentration [1]: 10 µM
minimal effective concentration [2]: 1.11 µM

COCCc1nc2c(N)nc3ccccc3c2n1CCCCNC(=O)NC1CCCCC1 [Example 105]
minimal effective concentration [1]: 1 µM
minimal effective concentration [2]: 0.001 µM

Nc1nc2ccccc2c2c1ncn2CCCCNC(=O)Nc1ccc([N+](=O)[O-])cc1 [Example 17]
minimal effective concentration [1]: 30 µM
minimal effective concentration [2]: > 30 µM

CCCCc1nc2c(N)nc3ccccc3c2n1CCCCNC(=O)NCc1cccc(C)c1 [Example 83]
minimal effective concentration [1]: 1 µM
minimal effective concentration [2]: 0.1 µM

CCCCc1nc2c(N)nc3ccccc3c2n1CCCCNC(=O)Nc1ccccc1OC [Example 85]
minimal effective concentration [1]: 0.1 µM
minimal effective concentration [2]: 0.001 µM

CCCCc1nc2c(N)nc3ccccc3c2n1CCCNC(=O)OC(C)(C)C [Example 147, tert-butyl 3-(4-amino-2-butiyl-1H-imidazo[4,5-c]quinolin-1-yl)propylcarbamate]
minimal effective concentration [1]: 0.12 µM
minimal effective concentration [2]: 0.01 µM

Nc1nc2ccccc2c2c1ncn2CCCCNC(=O)OCC1c2ccccc2-c2ccccc21 [Example 4, 9H-9-Fluorenylmethyl N-[4-(4-amino-1H-imidazo[4,5-c]quinolin-1-yl)butyl]carbamate]
minimal effective concentration [1]: > 30 µM
minimal effective concentration [2]: > 30 µM

CCCCc1nc2c(N)nc3ccccc3c2n1CCNC(=O)NCCC [Example 56]
minimal effective concentration [1]: 1 µM
minimal effective concentration [2]: 1 µM

Nc1nc2ccccc2c2c1ncn2CCCCNC(=O)Nc1ccccc1C(F)(F)F [Example 46]
minimal effective concentration [1]: 3.33 µM
minimal effective concentration [2]: 1.11 µM

CCCCc1nc2c(N)nc3ccccc3c2n1CCNC(=O)Nc1ccc(Oc2ccccc2)cc1 [Example 54]
minimal effective concentration [1]: 10 µM
minimal effective concentration [2]: > 10 µM

CSc1ccc(NC(=O)NCCCCn2cnc3c(N)nc4ccccc4c32)cc1 [Example 47]
minimal effective concentration [1]: 10 µM
minimal effective concentration [2]: 3.33 µM

CC(C)(C)NC(=O)NCCCCn1cnc2c(N)nc3ccccc3c21 [Example 20]
minimal effective concentration [1]: 30 µM
minimal effective concentration [2]: 1.11 µM

COCCc1nc2c(N)nc3ccccc3c2n1CC(C)(C)CNC(=O)Nc1ccccc1 [Example 169, N-{3-[4-amino-2-(2-methoxyethyl)-1H-imidazo[4,5-c]quinolin-1-yl]-2,2-dimethylpropyl}-N′-phenylurea]
minimal effective concentration [1]: 0.01 µM
minimal effective concentration [2]: 0.01 µM

COCCc1nc2c(N)nc3ccccc3c2n1CCCCNC(=O)Nc1cccc(C(F)(F)F)c1 [Example 116]
minimal effective concentration [1]: 1 µM
minimal effective concentration [2]: 0.0001 µM

COCCc1nc2c(N)nc3ccccc3c2n1CCCCNC(=O)NC(=O)c1ccccc1 [Example 141, N^1-{4-[4-Amino-2-(2-methoxyethyl)-1H-imidazo[4,5-c]quinolin-1-yl]butyl}-N^3-benzoylurea Trifluoroacetate]
minimal effective concentration [1]: 10 µM
minimal effective concentration [2]: > 10 µM

COCCc1nc2c(N)nc3ccccc3c2n1CCCCNC(=O)Nc1cccc([N+](=O)[O-])c1 [Example 114]
minimal effective concentration [1]: 0.01 µM
minimal effective concentration [2]: 0.0001 µM

CCCCOc1ccc(NC(=O)NCCCCn2cnc3c(N)nc4ccccc4c32)cc1 [Example 21]
minimal effective concentration [1]: > 30 µM
minimal effective concentration [2]: > 30 µM
